Test results as given in patent publication US6750348B1, “Chemokine receptor binding heterocyclic compounds” (AnorMED, Inc., priority 1999, dated 2004).

How the values were obtained:
Type in all cases: cell-based
[1] = system: RANTES induced Ca flux in U87.CCR5 cells; experiment: Inhibition of RANTES induced Ca flux in U87.CCR5 cells (FLIPR); settings: read-out: inhibited RANTES induced Ca flux; for inhibition at 20 µg/mL: U-87-CCR5, at 20 μg/mL
Method: (§1) Loading dye: Fluo-3, AM (Molecular Probes F-1241) is dissolved in anhydrous DMSO and stored frozen in aliquots. To increase the solubility of the dye in the loading medium, 10% (w/v) pluronic acid (Molecular Probes F-127) is added to the Fluo-3 stock solution immediately before use.
(§2) HBSS+20 mM Hepes buffer+0.2% BSA, pH 7.4. HBSS 10× [(w/o phenol red and sodium bicarbonate (Gibco 14 065-049)]; Hepes buffer 1M (Gibco 15 630-056), BSA (Sigma A3675). The flux buffer is vacuum-filtered and stored refrigerated for a maximum of 5 days. Before use in the experiment, the buffer is warmed at 37° C. in a waterbath.
(§3) The test compounds were diluted in flux buffer and added to 4 wells of a black microplate (4 parallel measurements per compound).
(§4) The chemokines are diluted in flux buffer to concentrations that are 4-fold higher than the desired concentrations required for stimulation of the cells (i.e. 2.5 nM for SDF-1α and 0.6 nM for RANTES). The chemokines were added to untreated 96-well Sero well compound plates (International Medical, Sterilin code 611F96). In the negative control well's (baseline monitoring), flux buffer is added instead of chemokine. As a positive control to check for dye loading efficiency, 20 μM digitonin (final concentration) was also included. The agonist plate was incubated in the FLIPR (37° C.) for 15-30 min.
(§5) The FLIPR settings (camera exposure time and laser power) are adjusted to obtain initial fluorescence values between 8,000 and 10,000 units. After monitoring a 20 second-baseline, the agonist (chemokine) (50 μL) is added by automatic pipettor with black pipette tips. Fluorescence is measured simultaneously in all wells of the microplate every 2 seconds (first 2 min) and thereafter every 6 seconds (additional 2 min). The average ca-flux measured in each set of 4 identical wells (one test compound) was calculated by the FLIPR software.
U87.CCR5 cells were seeded into the black microplates (Costar 3603) on the day before the experiment. The culture medium was removed from the cells and 100 μL of loading medium (DMEM+10% FBS+4 μM Fluo-3, AM) was added to each well and the plate was incubate at 37° C. for 45 min. The loading medium was then removed an the cells were washed twice with flux buffer using the CELL WASH microplate washer (Labsystems) followed by incubation in flux buffer for 10 min. at room temperature (the washing procedure was repeated twice). Finally, the wash buffer was removed from the microplate wells and 150 μL of the test compound, diluted in flux buffer to the desired concentration. The microplate was then incubated in the FLIPR drawer for 10 min. prior to testing. Measurements were performed as described above.
The compounds of the current invention were tested for inhibition of RANTES induced Ca flux in U87.CCR5 cells.

[2] = system: HIV-1 NL4.3 or IIIB; experiment: Inhibition of HIV-1 (NL4.3 or IIIB) replication in MT-4 cells (MTT); settings: Human immunodeficiency virus 1, IIIB, MT4, read-out: EC50, inhibition of HIV-1 NL4.3 or IIIB replication
Outline: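 CXCR4-tropic virus infected MT-4 cells at MOI 0.01 (100× CCID50) across a range of compound concentrations, with cytotoxicity run in parallel. Viable cells counted by MTT after 5 days. EC50 is the concentration protecting 50% of infected cells from viral cytopathicity.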

[3] = system: HIV-1 BaL (CCR5 using); experiment: Inhibition of HIV-1 (BaL) replication in PHA-stimulated PBMC's (MTT); settings: Human immunodeficiency virus 1, BAL, MTT assay
Method: Compounds were tested for their ability to inhibit HIV-1 replication in MT-4 cells or PBMC's (peripheral blood mononucleocytes) using published procedures (for example, see: Labrosse et al. J. Virol. 1998, 6381-6388; Simmons et al. J. Virol. 1998, 8453-8457; Donzella et al. Nature Medicine 1998, 72-77; Schols et al. J. Exp. Med. 1997, 1383-1388; De Clercq et al. Antiviral Res. 1997, 147-156; and Bridger et al. U.S. patent application Ser. No. 09/111,895). In addition to the above references, experimental methods for performing anti-viral assays can also be found in: Bridger et al. J. Med. Chem. 1995, 38, 366-378; Bridger et al. J. Med. Chem. 1996, 39, 109-119; Bridger et al. U.S. Pat. No. 5,698,546; Bridger et al. U.S. Pat. No. 5,583,131; Bridger et al. U.S. Pat. No. 5,817,807; De Clercq et al. Antimicrob. Agents and Chemother. 1994, 38, 668-674.
The HIV-1 strain BaL is M-tropic (macrophage tropic) strain that exclusively uses CCR5 as a co-receptor for entry into cells. PBMC's (from healthy donors) express all chemokine receptors including CXCR4 and CCR5.

[4] = system: SDF-1α induced Ca flux in SUP-T1 cells; experiment: Inhibition of SDF-1α induced Ca flux in SUP-T1 cells (FLIPR); settings: Homo sapiens, at 20 μg/mL, read-out: inhibited SDF-1α induced Ca flux
Method: as §1, §2, §3, §4
SUP-T1 cells were centrifuged at room temperature (RT) and re-suspended in loading medium (RPMI-1640 containing 2% FBS and 4 μM Fluo-3, AM). The cells were incubate at room temperature for 45 min. then washed twice in flux buffer then incubated in flux buffer at room temperature for 10 min. The cells were centrifuged and re-suspended in flux buffer at a density of 3×10^6 cells per mL. […] The microplate is then gently centrifuged at room temperature. Homogeneous spreading of the cells on the bottom of the microplate wells was then confirmed with a microscope and the microplate was incubated in the FLIPR (37° C.) for 10 min. prior to testing.
as §5
The compounds of the current invention were tested for inhibition of SDF-1α induced Ca flux in SUP-T1 cells using the method described above.

Compound | inhibition at 20 µg/mL [1] | EC50 [2] | EC50 [3] | inhibition at 20 µg/mL [4] | inhibition at 20 µM ([1]; U-87-CCR5, at 20 μM)
N[C@@H]1CCCC[C@H]1N(Cc1ccc(CNCc2ccccn2)cc1)C1CCCc2cccnc21 (relative stereo) [Example 68, N-(2-pyridinylmethyl)-N′-(trans-2-aminocyclohexyl)-N′-(5,6,7,8-tetrahydro-8-quinolinyl)-1,4-benzenedimethanamine] | > 20% | < 20 µg/mL |  |  | 
c1ccc(CNCc2ccc(CNc3cccc4cccnc34)cc2)nc1 [Example 6, N-(2-pyridinylmethyl)-N′-(8-quinolinyl)-1,4-benzenedimethanamine] | > 20% | < 20 µg/mL |  |  | 
c1ccc(CNCc2ccc(CNC3CCCc4ncccc43)cc2)nc1 (stereo not shown) [Example 13, N-(2-pyridinylmethyl)-N′-(5,6,7,8-tetrahydro-5-quinolinyl)-1,4-benzenedimethanamine] |  | < 20 µg/mL | < 20 µg/mL |  | 
c1ccc(CNCc2ccc(CN(Cc3ncc[nH]3)C3CCCc4ncccc43)cc2)nc1 (stereo not shown) [Example 14, N-(2-pyridinylmethyl)-N′-(1H-imidazol-2-ylmethyl)-N′-(5,6,7,8-tetrahydro-5-quinolinyl)-1,4-benzenedimethanamine] |  | < 20 µg/mL | < 20 µg/mL |  | 
c1ccc(CNCc2ccc(CN(CCCNCc3ccc4ccccc4c3)C3CCCc4cccnc43)cc2)nc1 (stereo not shown) [Example 22, N-(2-pyridinylmethyl)-N′-[3-((2-naphthalenylmethyl)amino)propyl]-N′-(5,6,7,8-tetrahydro-8-quinolinyl)-1,4-benzenedimethanamine] | > 20% |  |  | > 20% | 
c1ccc(CNCc2ccc(CN(C3CCNC3)C3CCCc4cccnc43)cc2)nc1 (stereo not shown) [Example 32, N-(2-pyridinylmethyl)-N′-3-pyrrolidinyl-N′-(5,6,7,8-tetrahydro-8-quinolinyl)-1,4-benzenedimethanamine] |  | < 20 µg/mL | < 20 µg/mL |  | 
c1ccc(CNCc2ccc(CN(C3CCNCC3)C3CCCc4cccnc43)cc2)nc1 (stereo not shown) [Example 33, N-(2-pyridinylmethyl)-N′-4-piperidinyl-N′-(5,6,7,8-tetrahydro-8-quinolinyl)-1,4-benzenedimethanamine] |  | < 20 µg/mL | < 20 µg/mL |  | 
c1ccc(NCCN(Cc2ccc(CNCc3ccccn3)cc2)C2CCCc3cccnc32)cc1 (stereo not shown) [Example 34, N-(2-pyridinylmethyl)-N′-[2-[(phenyl)amino]ethyl]-N′-(5,6,7,8-tetrahydro-8-quinolinyl)-1,4-benzenedimethanamine] |  | < 20 µg/mL | < 20 µg/mL |  | 
COc1ccc2c(c1)CCC(NCc1ccc(CNCc3ccccn3)cc1)C2 (stereo not shown) [Example 36, N-(2-pyridinylmethyl)-N′-(6-methoxy-1,2,3,4-tetrahydro-2-naphthalenyl)-1,4-benzenedimethanamine] |  | < 20 µg/mL | < 20 µg/mL |  | 
Oc1cccc2c1CC(N(Cc1ccc(CNCc3ccccn3)cc1)Cc1ncc[nH]1)CC2 (stereo not shown) [Example 42, N-(2-pyridinylmethyl)-N′-(1H-imidazol-2-ylmethyl)-N′-(8-hydroxy-1,2,3,4-tetrahydro-2-naphthalenyl)-1,4-benzenedimethanamine] |  | < 20 µg/mL | < 20 µg/mL |  | 
Fc1cccc2c1CC(N(Cc1ccc(CNCc3ccccn3)cc1)Cc1ncc[nH]1)CC2 (stereo not shown) [Example 44, N-(2-pyridinylmethyl)-N′-(1H-imidazol-2-ylmethyl)-N′-(8-Fluoro-1,2,3,4-tetrahydro-2-naphthalenyl)-1,4-benzenedimethanamine] | > 20% | < 20 µg/mL |  |  | 
c1ccc(CNCc2ccc(CN(CCNCc3ccc4ccccc4c3)C3CCCc4cccnc43)cc2)nc1 (stereo not shown) [Example 47, N-(2-pyridinylmethyl)-N′-[2-[(2-naphthalenylmethyl)amino]ethyl]-N′-(5,6,7,8-tetrahydro-8-quinolinyl)-1,4-benzenedimethanamine] | > 20% | < 20 µg/mL |  | > 20% | 
c1ccc(CNCCN(Cc2ccc(CNCc3ccccn3)cc2)C2CCCc3cccnc32)nc1 (stereo not shown) [Example 49, N-(2-pyridinylmethyl)-N′-[2-[(2-pyridinylmethyl)amino]ethyl]-N′-(5,6,7,8-tetrahydro-8-quinolinyl)-1,4-benzenedimethanamine] | > 20% | < 20 µg/mL |  | > 20% | 
c1ccc(CNCc2ccc(CN(CCNCc3ccco3)C3CCCc4cccnc43)cc2)nc1 (stereo not shown) [Example 50, N-(2-pyridinylmethyl)-N′-[2-[(2-furanylmethyl)amino]ethyl]-N′-(5,6,7,8-tetrahydro-8-quinolinyl)-1,4-benzenedimethanamine] | > 20% | < 20 µg/mL |  | > 20% | 
c1ccc(CNCc2ccc(CN(c3nc4ccccc4o3)C3CCCc4cccnc43)cc2)nc1 (stereo not shown) [Example 67, N-(2-pyridinylmethyl)-N′-(2-benzoxazolyl)-N′-(5,6,7,8-tetrahydro-8-quinolinyl)-1,4-benzenedimethanamine] | > 20% | < 20 µg/mL |  |  | 
C[C@H](N)C(=O)N(Cc1ccc(CNCc2ccccn2)cc1)C1CCCc2cccnc21 (stereo partly shown) [Example 73, N-[[4-[[(2-pyridinylmethyl)amino]methyl]phenyl]methyl]-N-(5,6,7,8-tetrahydro-8-quinolinyl)-(L)-alaninamide] | > 20% |  |  | > 20% | 
O=C([C@@H]1CCCN1)N(Cc1ccc(CNCc2ccccn2)cc1)C1CCCc2cccnc21 (stereo partly shown) [Example 76, N-[[4-[[(2-pyridinylmethyl)amino]methyl]phenyl]methyl]-N-(5,6,7,8-tetrahydro-8-quinolinyl)-(L)-prolinamide] | > 20% |  |  | > 20% | 
NCCCC[C@H](N)C(=O)N(Cc1ccc(CNCc2ccccn2)cc1)C1CCCc2cccnc21 (stereo partly shown) [Example 77, N-[[4-[[(2-pyridinylmethyl)amino]methyl]phenyl]methyl]-N-(5,6,7,8-tetrahydro-8-quinolinyl)-(L)-lysinamide] | > 20% |  |  | > 20% | 
c1ccc(CN2CCC(N(CCc3ccccn3)Cc3cccc(CNCc4ccccn4)c3)C2)cc1 (stereo not shown) [Example 179, N-[1-(benzyl)-3-pyrrolidinyl]-N-[2-(2-pyridinyl)ethyl]-N′-(2-pyridinylmethyl)-1,3-benzenedimethanamine] |  |  |  |  | > 20%
